In brackets after ≈: the same amount, converted by molar mass.
What was measured:
[1] = target: Cyclin-dependent kinase 7 (Homo sapiens, UniProt P50613); experiment: Binding affinity to T7-phage-tagged CDK7 by PCR analysis
[2] = target: Mitogen-activated protein kinase 7 (Homo sapiens, UniProt Q13164); experiment: Binding affinity to T7-phage-tagged MAPK7 by PCR analysis
[3] = target: Inhibitor of nuclear factor kappa-B kinase subunit beta (Homo sapiens, UniProt O14920); experiment: Binding affinity to T7-phage-tagged IKKbeta by PCR analysis
[4] = target: Ribosomal protein S6 kinase alpha-1 (Homo sapiens, UniProt Q15418); experiment: Binding affinity to T7-phage-tagged RPS6KA1 by PCR analysis
[5] = test system: Rattus norvegicus; experiment: Antiasthatic activity in ovalbumin-sensitized Brown Norway rat assessed as inhibition of ovalbumin-induced neutrophil infiltration into BAL at 10 mg/kg, sc administered 24 hrs prior to ovalbumin-challenge measured after 4 hrs relative to vehicle-treated control; format: functional; details: route subcutaneous
[6] = Half life in rat at 3 mg/kg, iv; format: ADME, organism-based; parameters: dose 3 mg/kg, route intravenous; details: in vivo
[7] = target: Dual specificity mitogen-activated protein kinase kinase 4 (Homo sapiens, UniProt P45985); experiment: Binding affinity to T7-phage-tagged MAP2K4 by PCR analysis
[8] = target: T1, Mitogen-activated protein kinase 8 (Homo sapiens, UniProt P45983); experiment: Inhibition of human JNK1 alpha1 using GST-tagged ATF2 as substrate and [gamma33P]ATP incubated for 10 mins prior to substrate addition measured after 30 mins by scintillation counting
[9] = target: Mitogen-activated protein kinase 15 (Homo sapiens, UniProt Q8TD08); experiment: Binding affinity to T7-phage-tagged MAPK15 by PCR analysis
[10] = Clearance in rat at 3 mg/kg, iv; format: ADME, organism-based; parameters: dose 3 mg/kg, route intravenous; details: in vivo
[11] = target: Death-associated protein kinase 3 (Homo sapiens, UniProt O43293); experiment: Binding affinity to T7-phage-tagged DAPK3 by PCR analysis
[12] = Oral bioavailability in rat at 3 mg/kg administered using labrasol as vehicle; format: ADME, organism-based; details: in vivo
[13] = target: Death-associated protein kinase 2 (Homo sapiens, UniProt Q9UIK4); experiment: Binding affinity to T7-phage-tagged DAPK2 by PCR analysis
[14] = target: Serine/threonine-protein kinase DCLK3 (Homo sapiens, UniProt Q9C098); experiment: Binding affinity to T7-phage-tagged DCAMKL3 by PCR analysis
[15] = target: c-Jun N-terminal kinase, JNK (Homo sapiens, UniProt P45983+P53779+P45984); experiment: Inhibition of JNK in human SW1353 assessed as inhibition of TNFalpha-inuced c-Jun phosphorylation incubated for 30 mins prior to TNFalpha-induction measured after 20 mins by immunostaining method
[16] = test system: Caco-2; experiment: Efflux ratio of permeability from apical to basal to basal to apical side of human Caco2 cells; format: ADME, cell-based
[17] = Solubility of the compound in phosphate buffer at pH 6.4; format: physicochemical
[18] = target: T1, Mitogen-activated protein kinase 8; experiment: Binding affinity to T7-phage-tagged JNK1 by PCR analysis
[19] = target: T2, Mitogen-activated protein kinase 9 (Homo sapiens, UniProt P45984); experiment: Inhibition of human JNK2 alpha2 using GST-tagged ATF2 as substrate and [gamma33P]ATP incubated for 10 mins prior to substrate addition measured after 30 mins by scintillation counting
[20] = test system: Rattus norvegicus; experiment: Antiasthatic activity in ovalbumin-sensitized Brown Norway rat assessed as inhibition of ovalbumin-induced total white blood cells infiltration into BAL at 10 mg/kg, sc administered 24 hrs prior to ovalbumin-challenge measured after 4 hrs relative to vehicle-treated control; format: functional; details: route subcutaneous
[21] = target: Serine/threonine-protein kinase RIO2 (Homo sapiens, UniProt Q9BVS4); experiment: Binding affinity to T7-phage-tagged RIOK2 by PCR analysis
[22] = target: Interleukin-1 receptor-associated kinase 1 (Homo sapiens, UniProt P51617); experiment: Binding affinity to T7-phage-tagged IRAK1 by PCR analysis
[23] = target: Death-associated protein kinase 1 (Homo sapiens, UniProt P53355); experiment: Binding affinity to T7-phage-tagged DAPK1 by PCR analysis
[24] = Half life in dog at 3 mg/kg, iv; format: ADME, organism-based, Canis lupus familiaris; parameters: dose 3 mg/kg, route intravenous; details: in vivo
[25] = target: Myosin light chain kinase family member 4 (Homo sapiens, UniProt Q86YV6); experiment: Binding affinity to T7-phage-tagged SgK085 by PCR analysis
[26] = target: Serine/threonine-protein kinase 17A (Homo sapiens, UniProt Q9UEE5); experiment: Binding affinity to T7-phage-tagged STK17A by PCR analysis
[27] = Clearance in dog at 3 mg/kg, iv; format: ADME, organism-based, Canis lupus familiaris; parameters: dose 3 mg/kg, route intravenous; details: in vivo
[28] = […] bioavailability in ip dosed rat; format: ADME, organism-based; details: in vivo, intraperitoneal
[29] = Oral bioavailability in rat at 3 mg/kg administered using hydroxypropyl methylcellulose as vehicle; format: ADME, organism-based; details: in vivo
[30] = target: Mitogen-activated protein kinase 12 (Homo sapiens, UniProt P53778); experiment: Binding affinity to T7-phage-tagged P38gamma by PCR analysis
[31] = target: T2, Mitogen-activated protein kinase 9; experiment: Binding affinity to T7-phage-tagged JNK2 by PCR analysis
[32] = target: Mitogen-activated protein kinase 13 (Homo sapiens, UniProt O15264); experiment: Binding affinity to T7-phage-tagged P38delta by PCR analysis
[33] = Oral bioavailability in dog at 3 mg/kg administered using hydroxypropyl methylcellulose as vehicle; format: ADME, organism-based, Canis lupus familiaris; details: in vivo

T1 sequence (P45983 whole entry): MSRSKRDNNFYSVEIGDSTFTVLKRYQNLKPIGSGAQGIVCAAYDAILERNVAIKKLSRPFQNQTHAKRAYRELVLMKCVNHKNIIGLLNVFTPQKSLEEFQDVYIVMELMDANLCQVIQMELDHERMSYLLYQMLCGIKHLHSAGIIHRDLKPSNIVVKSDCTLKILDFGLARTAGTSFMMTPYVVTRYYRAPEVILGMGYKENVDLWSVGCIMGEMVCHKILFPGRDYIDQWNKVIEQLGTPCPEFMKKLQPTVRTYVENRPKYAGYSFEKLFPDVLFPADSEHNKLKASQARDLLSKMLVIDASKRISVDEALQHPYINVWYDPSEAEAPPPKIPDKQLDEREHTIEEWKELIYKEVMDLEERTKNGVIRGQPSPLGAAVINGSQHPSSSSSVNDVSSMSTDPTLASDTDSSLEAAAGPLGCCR
T2 sequence (P45984 whole entry): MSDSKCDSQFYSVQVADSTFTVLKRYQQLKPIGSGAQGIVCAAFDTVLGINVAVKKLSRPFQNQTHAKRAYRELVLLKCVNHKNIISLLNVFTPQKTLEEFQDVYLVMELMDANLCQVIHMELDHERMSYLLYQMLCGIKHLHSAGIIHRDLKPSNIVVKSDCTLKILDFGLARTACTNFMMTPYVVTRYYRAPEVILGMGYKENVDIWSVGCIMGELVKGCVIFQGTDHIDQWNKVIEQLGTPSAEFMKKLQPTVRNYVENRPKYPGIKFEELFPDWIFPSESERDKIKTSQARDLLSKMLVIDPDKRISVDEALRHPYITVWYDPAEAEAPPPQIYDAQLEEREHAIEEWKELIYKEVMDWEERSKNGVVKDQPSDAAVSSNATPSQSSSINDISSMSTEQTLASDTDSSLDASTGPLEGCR
Death-associated protein kinase 2, sequence (Q9UIK4 whole entry): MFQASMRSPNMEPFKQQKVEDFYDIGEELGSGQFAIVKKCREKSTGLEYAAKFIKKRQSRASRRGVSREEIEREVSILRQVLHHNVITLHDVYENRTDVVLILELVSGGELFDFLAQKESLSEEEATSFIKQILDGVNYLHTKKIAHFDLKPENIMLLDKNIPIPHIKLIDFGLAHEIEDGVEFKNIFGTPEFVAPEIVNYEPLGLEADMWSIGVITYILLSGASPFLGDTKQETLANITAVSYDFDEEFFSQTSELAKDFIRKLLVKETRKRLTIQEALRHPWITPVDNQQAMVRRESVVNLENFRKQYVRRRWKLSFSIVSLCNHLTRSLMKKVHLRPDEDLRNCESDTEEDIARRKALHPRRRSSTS
Serine/threonine-protein kinase RIO2, sequence (Q9BVS4 whole entry): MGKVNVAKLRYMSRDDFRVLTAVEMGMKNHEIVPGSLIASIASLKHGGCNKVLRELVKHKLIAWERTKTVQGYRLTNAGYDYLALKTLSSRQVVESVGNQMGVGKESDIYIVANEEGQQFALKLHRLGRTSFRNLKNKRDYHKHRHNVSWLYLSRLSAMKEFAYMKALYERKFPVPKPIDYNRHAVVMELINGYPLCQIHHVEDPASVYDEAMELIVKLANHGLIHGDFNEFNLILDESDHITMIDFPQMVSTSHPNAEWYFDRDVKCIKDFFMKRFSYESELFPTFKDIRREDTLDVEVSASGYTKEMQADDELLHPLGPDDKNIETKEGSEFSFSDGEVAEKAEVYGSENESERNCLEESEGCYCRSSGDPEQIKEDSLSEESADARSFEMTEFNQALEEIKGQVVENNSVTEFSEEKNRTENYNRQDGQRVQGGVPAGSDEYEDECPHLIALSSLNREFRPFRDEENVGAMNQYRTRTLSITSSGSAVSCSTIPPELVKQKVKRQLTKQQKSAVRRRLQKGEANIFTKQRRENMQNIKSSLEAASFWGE
Mitogen-activated protein kinase 7, sequence (Q13164 whole entry): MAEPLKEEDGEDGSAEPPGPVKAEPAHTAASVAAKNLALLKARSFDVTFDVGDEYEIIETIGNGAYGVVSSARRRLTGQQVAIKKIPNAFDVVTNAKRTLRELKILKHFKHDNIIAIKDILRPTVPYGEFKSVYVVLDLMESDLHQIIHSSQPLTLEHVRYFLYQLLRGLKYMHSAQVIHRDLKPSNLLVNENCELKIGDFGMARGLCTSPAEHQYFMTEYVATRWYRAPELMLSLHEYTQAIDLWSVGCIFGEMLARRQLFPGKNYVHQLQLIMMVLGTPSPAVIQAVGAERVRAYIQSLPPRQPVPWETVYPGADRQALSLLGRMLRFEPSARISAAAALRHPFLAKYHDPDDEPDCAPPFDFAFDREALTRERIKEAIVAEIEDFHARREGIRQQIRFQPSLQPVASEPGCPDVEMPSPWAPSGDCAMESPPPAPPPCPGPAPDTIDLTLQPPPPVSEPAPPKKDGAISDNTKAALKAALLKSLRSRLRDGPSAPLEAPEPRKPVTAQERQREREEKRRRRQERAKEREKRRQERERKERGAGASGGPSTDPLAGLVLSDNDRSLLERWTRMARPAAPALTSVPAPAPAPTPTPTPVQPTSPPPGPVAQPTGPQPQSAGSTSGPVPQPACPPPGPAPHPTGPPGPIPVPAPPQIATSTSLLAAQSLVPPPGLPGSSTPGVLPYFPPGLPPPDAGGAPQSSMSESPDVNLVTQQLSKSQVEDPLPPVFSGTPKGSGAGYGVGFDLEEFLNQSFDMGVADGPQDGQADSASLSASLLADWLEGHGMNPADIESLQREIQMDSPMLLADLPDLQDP
Serine/threonine-protein kinase 17A, sequence (Q9UEE5 whole entry): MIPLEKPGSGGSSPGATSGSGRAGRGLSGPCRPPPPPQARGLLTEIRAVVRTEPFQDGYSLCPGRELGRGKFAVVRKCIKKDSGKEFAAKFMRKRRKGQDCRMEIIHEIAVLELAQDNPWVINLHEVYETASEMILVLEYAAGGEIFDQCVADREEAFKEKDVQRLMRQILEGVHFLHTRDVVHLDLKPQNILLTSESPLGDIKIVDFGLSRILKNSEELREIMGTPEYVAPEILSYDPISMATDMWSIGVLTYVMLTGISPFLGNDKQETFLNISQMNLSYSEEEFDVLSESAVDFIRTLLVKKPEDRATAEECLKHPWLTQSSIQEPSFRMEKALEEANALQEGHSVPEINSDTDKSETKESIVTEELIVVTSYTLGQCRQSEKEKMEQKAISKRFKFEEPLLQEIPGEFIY
Myosin light chain kinase family member 4, sequence (Q86YV6 whole entry): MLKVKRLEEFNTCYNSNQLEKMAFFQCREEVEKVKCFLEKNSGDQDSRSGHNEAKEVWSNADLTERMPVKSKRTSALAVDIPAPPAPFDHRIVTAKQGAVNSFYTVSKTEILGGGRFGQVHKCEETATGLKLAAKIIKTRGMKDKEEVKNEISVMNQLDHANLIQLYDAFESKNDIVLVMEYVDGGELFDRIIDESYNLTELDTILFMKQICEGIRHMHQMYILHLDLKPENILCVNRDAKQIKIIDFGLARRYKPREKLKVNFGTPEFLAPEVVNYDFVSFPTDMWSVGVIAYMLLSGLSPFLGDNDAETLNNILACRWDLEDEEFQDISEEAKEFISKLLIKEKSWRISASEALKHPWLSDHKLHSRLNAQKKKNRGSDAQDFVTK
Death-associated protein kinase 3, sequence (O43293 whole entry): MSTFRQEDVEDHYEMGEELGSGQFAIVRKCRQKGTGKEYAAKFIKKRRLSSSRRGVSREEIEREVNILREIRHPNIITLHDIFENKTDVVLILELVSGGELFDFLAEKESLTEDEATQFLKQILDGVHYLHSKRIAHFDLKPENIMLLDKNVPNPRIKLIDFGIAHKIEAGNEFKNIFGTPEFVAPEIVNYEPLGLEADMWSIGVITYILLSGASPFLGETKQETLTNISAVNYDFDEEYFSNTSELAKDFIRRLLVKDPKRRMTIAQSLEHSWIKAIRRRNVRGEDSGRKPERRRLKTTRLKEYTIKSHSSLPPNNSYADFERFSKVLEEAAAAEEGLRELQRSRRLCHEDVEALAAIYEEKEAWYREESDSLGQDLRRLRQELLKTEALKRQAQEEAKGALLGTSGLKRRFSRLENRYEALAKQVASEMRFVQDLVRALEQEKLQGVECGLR
Cyclin-dependent kinase 7, sequence (P50613 whole entry): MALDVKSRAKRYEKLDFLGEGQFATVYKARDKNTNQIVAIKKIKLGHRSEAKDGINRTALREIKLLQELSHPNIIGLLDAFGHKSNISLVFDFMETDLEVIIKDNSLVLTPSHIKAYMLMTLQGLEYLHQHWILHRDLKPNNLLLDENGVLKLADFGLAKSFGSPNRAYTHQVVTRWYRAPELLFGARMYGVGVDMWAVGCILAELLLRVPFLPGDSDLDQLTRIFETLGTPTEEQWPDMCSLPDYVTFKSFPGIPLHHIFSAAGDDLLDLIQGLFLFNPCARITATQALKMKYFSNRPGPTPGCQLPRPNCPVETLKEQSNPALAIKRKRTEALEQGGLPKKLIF
Mitogen-activated protein kinase 13, sequence (O15264 whole entry): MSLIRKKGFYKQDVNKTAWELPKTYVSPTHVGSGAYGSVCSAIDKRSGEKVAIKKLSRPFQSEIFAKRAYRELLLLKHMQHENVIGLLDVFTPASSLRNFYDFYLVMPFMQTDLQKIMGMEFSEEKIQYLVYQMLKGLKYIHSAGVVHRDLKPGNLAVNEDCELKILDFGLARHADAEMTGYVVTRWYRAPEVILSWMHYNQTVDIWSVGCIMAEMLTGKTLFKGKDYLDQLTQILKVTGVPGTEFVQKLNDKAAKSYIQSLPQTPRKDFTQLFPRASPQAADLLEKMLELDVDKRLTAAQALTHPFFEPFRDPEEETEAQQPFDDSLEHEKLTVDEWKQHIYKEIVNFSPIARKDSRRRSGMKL
Dual specificity mitogen-activated protein kinase kinase 4, sequence (P45985 whole entry): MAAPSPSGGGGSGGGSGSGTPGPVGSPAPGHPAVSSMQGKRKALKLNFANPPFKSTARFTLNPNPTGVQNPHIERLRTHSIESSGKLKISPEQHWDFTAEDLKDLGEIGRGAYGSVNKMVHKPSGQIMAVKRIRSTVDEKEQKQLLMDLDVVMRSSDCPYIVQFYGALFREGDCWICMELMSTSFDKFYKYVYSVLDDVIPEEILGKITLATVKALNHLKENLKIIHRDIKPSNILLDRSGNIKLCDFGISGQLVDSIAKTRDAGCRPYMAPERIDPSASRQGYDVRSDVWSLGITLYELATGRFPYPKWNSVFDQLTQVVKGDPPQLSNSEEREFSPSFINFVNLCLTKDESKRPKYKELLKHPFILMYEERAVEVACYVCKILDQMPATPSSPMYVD

Question: What does the source list for COC(=O)c1c(Cc2ccc(C(=O)NCCO)cc2)c(=O)c2ccc(Cl)cc2n1-c1ccccc1?
Answer: Kd [1]: > 10000 nM; Kd [2]: > 10000 nM; Kd [3]: > 10000 nM; Kd [4]: > 10000 nM; inhibition in vivo at 10 mg/kg [5]: 55%; half-life [6]: 1 h; Kd [7]: > 10000 nM; IC50 [8]: 62 nM; Kd [9]: > 10000 nM; clearance [10]: 25 mL/min/kg; Kd [11]: > 10000 nM; bioavailability [12]: 43%; Kd [13]: > 10000 nM; Kd [14]: > 10000 nM; IC50 [15]: 3000 nM; Ratio [16]: 7; solubility [17]: 8.5 µg/mL (≈ 17.3 µM); Kd [18]: 62 nM; IC50 [19]: 170 nM; inhibition in vivo at 10 mg/kg [20]: 40%; Kd [21]: > 10000 nM; Kd [22]: > 10000 nM; Kd [23]: > 10000 nM; half-life [24]: 2.5 h; Kd [25]: > 10000 nM; Kd [26]: > 10000 nM; clearance [27]: 3.4 mL/min/kg; bioavailability [28]: 100%; bioavailability [29]: 6%; Kd [30]: > 10000 nM; Kd [31]: 170 nM; Kd [32]: > 10000 nM; bioavailability [33]: 40%

Question: For COC(=O)c1c(Cc2ccc(S(C)(=O)=O)cc2)c(=O)c2ccc(C(F)(F)F)nc2n1-c1ccccc1, which IC50 [8] is on record?
Answer: 82 nM

Question: And the IC50 [15]?
Answer: 2700 nM

Question: What about the IC50 [19] of the same compound?
Answer: 220 nM

Question: With COC(=O)c1c(Cc2ccc(C(=O)NCCO)cc2)c(=O)c2ccc(C(F)(F)F)nc2n1-c1ccccc1 as the compound, how does the IC50 [8] read?
Answer: 80 nM

Question: What about the IC50 [15] of the same compound?
Answer: 4300 nM

Question: What about the IC50 [19] of the same compound?
Answer: 176 nM

Question: For COC(=O)c1c(CN2CCN(S(C)(=O)=O)CC2)c(=O)c2ccc(F)cc2n1-c1ccccc1, which IC50 [8] is on record?
Answer: 65 nM

Question: What about the IC50 [19] of the same compound?
Answer: 507 nM

Question: With COC(=O)c1c(CN2CCC(S(C)(=O)=O)CC2)c(=O)c2ccc(F)cc2n1-c1ccccc1 as the compound, how does the IC50 [8] read?
Answer: 23 nM

Question: What about the IC50 [15] of the same compound?
Answer: 830 nM

Question: And the Ratio [16]?
Answer: 2

Question: And the solubility [17]?
Answer: 34 µg/mL (≈ 72 µM)

Question: And the IC50 [19]?
Answer: 140 nM

Question: For COC(=O)c1c(CN2CCOCC2)c(=O)c2ccc(F)cc2n1-c1ccccc1, which IC50 [8] is on record?
Answer: 114 nM

Question: And the IC50 [19]?
Answer: 900 nM

Question: With COC(=O)c1c(CN2CC[C@@H](S(C)(=O)=O)C2)c(=O)c2ccc(F)cc2n1-c1ccccc1 as the compound, how does the IC50 [8] read?
Answer: 130 nM

Question: What about the IC50 [19] of the same compound?
Answer: 1310 nM

Question: Which IC50 [8] does the source give for COC(=O)c1c(CN2CC[C@H](S(C)(=O)=O)C2)c(=O)c2ccc(F)cc2n1-c1ccccc1 here?
Answer: 53 nM

Question: And the IC50 [19]?
Answer: 535 nM

Question: Which IC50 [15] does the source give for COC(=O)c1c(CN2CCC(S(C)(=O)=O)CC2)c(=O)c2ccc(C)nc2n1-c1ccccc1 here?
Answer: 430 nM

Question: And the IC50 [19]?
Answer: 190 nM

Question: Which IC50 [15] does the source give for COC(=O)c1c(CN2CCC(S(C)(=O)=O)CC2)c(=O)c2ccc(C(F)(F)F)nc2n1-c1ccccc1 here?
Answer: 4300 nM

Question: What about the IC50 [19] of the same compound?
Answer: 290 nM

Question: With CCn1c(=O)c2ccccc2n(-c2ccccc2)c1=O as the compound, how does the IC50 [8] read?
Answer: 11000 nM

Question: And the IC50 [19]?
Answer: > 20000 nM

Question: Which IC50 [8] does the source give for O=c1c2ccccc2n(-c2ccccc2)c(=O)n1Cc1ccccc1 here?
Answer: 2800 nM

Question: And the IC50 [19]?
Answer: 9300 nM

Question: Which results are given for O=c1c2ccc(Cl)cc2n(-c2ccccc2)c(=O)n1Cc1ccccc1?
Answer: IC50 [8]: 2300 nM; IC50 [19]: 3800 nM

Question: Which IC50 [8] does the source give for COC(=O)c1c(Cc2ccccc2)c(=O)c2ccc(Cl)cc2n1-c1ccccc1 here?
Answer: 370 nM

Question: What about the IC50 [19] of the same compound?
Answer: 960 nM

Question: Which IC50 [8] does the source give for CNS(=O)(=O)c1ccc(Cc2c(C(=O)OC)n(-c3ccccc3)c3cc(Cl)ccc3c2=O)cc1 here?
Answer: 47 nM

Question: With CCNC(=O)c1ccc(Cc2c(C(=O)OC)n(-c3ccccc3)c3cc(Cl)ccc3c2=O)cc1 as the compound, how does the IC50 [8] read?
Answer: 38 nM

Question: What about the IC50 [19] of the same compound?
Answer: 94 nM

Question: Which results are given for COC(=O)c1c(Cc2ccc(S(=O)(=O)N3CCNCC3)cc2)c(=O)c2ccc(Cl)cc2n1-c1ccccc1?
Answer: IC50 [8]: 30 nM; IC50 [15]: 1000 nM; Ratio [16]: 2; solubility [17]: 23 µg/mL (≈ 41.7 µM); IC50 [19]: 50 nM

Question: Which results are given for COC(=O)c1c(Cc2ccc(S(=O)(=O)N3CCNCC3)cc2)c(=O)c2ccc(F)cc2n1-c1ccccc1?
Answer: IC50 [8]: 30 nM; IC50 [15]: 1700 nM; solubility [17]: 37 µg/mL (≈ 69.1 µM); IC50 [19]: 70 nM

Question: Which IC50 [8] does the source give for COC(=O)c1c(Cc2ccc(S(=O)(=O)CCO)cc2)c(=O)c2ccc(F)cc2n1-c1ccccc1 here?
Answer: 58 nM

Question: What about the IC50 [15] of the same compound?
Answer: 2500 nM

Question: What about the IC50 [19] of the same compound?
Answer: 219 nM

Question: Which IC50 [8] does the source give for COC(=O)c1c(Cc2ccc(C(=O)NCCO)cc2)c(=O)c2ccc(C)nc2n1-c1ccccc1 here?
Answer: 30 nM

Question: And the IC50 [15]?
Answer: 4200 nM

Question: What about the Ratio [16] of the same compound?
Answer: 15

Question: And the solubility [17]?
Answer: 78 µg/mL (≈ 165 µM)

Question: What about the IC50 [19] of the same compound?
Answer: 64 nM

Question: Which results are given for COC(=O)c1c(Cc2ccc(S(=O)(=O)N3CCNCC3)cc2)c(=O)c2ccc(C)nc2n1-c1ccccc1?
Answer: IC50 [8]: 18 nM; IC50 [15]: 560 nM; IC50 [19]: 28 nM

Question: Which results are given for CCNC(=O)c1ccc(Cc2c(C(=O)OC)n(-c3ccccc3)c3nc(C)ccc3c2=O)cc1?
Answer: IC50 [8]: 45 nM; IC50 [15]: 4700 nM; IC50 [19]: 87 nM

Question: With COC(=O)c1c(Cc2ccc(S(C)(=O)=O)cc2)c(=O)c2ccc(C)nc2n1-c1cccc(N)c1 as the compound, how does the IC50 [8] read?
Answer: 14 nM

Question: And the IC50 [15]?
Answer: 860 nM

Question: And the IC50 [19]?
Answer: 32 nM

— ChEMBL document CHEMBL2203077, “Discovery of a novel series of 4-quinolone JNK inhibitors” (Bioorg Med Chem Lett, 2012)
